This test addresses T1, mouse ZnT-1 (Mus musculus, UniProt Q60738).
T1 construct: host or cells: HEK293
T1 sequence (Q60738 1-503): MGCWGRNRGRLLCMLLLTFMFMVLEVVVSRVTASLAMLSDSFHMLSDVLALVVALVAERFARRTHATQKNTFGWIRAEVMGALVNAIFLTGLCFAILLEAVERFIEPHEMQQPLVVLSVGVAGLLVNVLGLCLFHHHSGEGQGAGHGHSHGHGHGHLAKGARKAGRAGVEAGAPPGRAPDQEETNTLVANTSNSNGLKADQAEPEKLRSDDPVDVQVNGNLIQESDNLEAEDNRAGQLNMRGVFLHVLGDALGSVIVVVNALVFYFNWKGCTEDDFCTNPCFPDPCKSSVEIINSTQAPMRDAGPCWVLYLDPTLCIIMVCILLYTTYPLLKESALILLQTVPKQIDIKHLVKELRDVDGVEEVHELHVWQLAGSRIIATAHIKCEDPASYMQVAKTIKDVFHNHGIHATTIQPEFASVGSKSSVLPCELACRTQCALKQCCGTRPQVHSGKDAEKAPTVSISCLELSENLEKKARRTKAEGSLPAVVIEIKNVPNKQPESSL
Briefly: Zinc efflux assay (FluoZin-3) in ZnT1-transfected HEK293 cells. Type of test: cell-based. The settings on record: ZnT1-expressing HEK293 cells, 3 μM overnight, N2AZ versus scN2AZ. How it is done: HEK293 cells were grown in Dulbecco's modified Eagle's medium (DMEM) containing: 100 units/ml penicillin, 0.1 mg/ml streptomycin, 2 mm glutamine, and 10% (v/v) fetal calf serum in a 5% CO2 humidified atmosphere at 37° C. To express ZnT1, HEK 293 cells were transfected with ZnT1 or empty plasmid (control) using CaPO4 precipitation. Briefly,1 μg mouse ZnT-1 (pCMV6:ZnT1 Gen Bank Q60738) or empty vector plasmid (pCMV6, Origene) was incubated with 2 M calcium chloride in HEPES buffered solution containing […] to generate a co-precipitate, this solution was then dispersed onto cultured cells for 6 hours. Twenty four hours later, cells were treated with the scN2AZ or N2AZ (3 μM ) overnight. […] Rates of initial decrease of the fluorescent signal following exposure to Zn^2+ were determined during a 100 second period. […] Fluorescence imaging measurements were acquired using Axon Imaging Workbench 5.2 (INDEC BioSystems) and analyzed using Excel and Prism GraphPad.
Next, it was examined whether N2AZ could modify ZnT1-dependent zinc transport. Following an intracellular zinc load, decreases in intracellular zinc levels were measured over time as a readout of zinc transport in HEK293 cells previously transfected with a plasmid encoding for ZnT1 or an empty vector. FluoZin-3 fluorescence was utilized to quantify intracellular zinc levels (Qin et al., 2009; Shusterman et al., 2014). […]

NDSYLRSSL [Peptide N2AZ]: the “rate of zinc efflux” value is “not different”.

The values above are taken from patent US20230034660A1, “PEPTIDES THAT ENHANCE NMDA RECEPTOR FUNCTION AND USE THEREOF” (University of Pittsburgh - Of the Commonwealth System of …, priority 2019, published 2023).
